molecular target: T1, human leukocyte elastase (Homo sapiens, UniProt P08246); experiment: human leukocyte elastase (HLE) inhibitory activity, substrate MeOSuc-Ala-Ala-Pro-Val-pNA; assay type: biochemical; settings: pH 7.8, 25° C., steady-state velocities
T1 sequence (P08246 30-267): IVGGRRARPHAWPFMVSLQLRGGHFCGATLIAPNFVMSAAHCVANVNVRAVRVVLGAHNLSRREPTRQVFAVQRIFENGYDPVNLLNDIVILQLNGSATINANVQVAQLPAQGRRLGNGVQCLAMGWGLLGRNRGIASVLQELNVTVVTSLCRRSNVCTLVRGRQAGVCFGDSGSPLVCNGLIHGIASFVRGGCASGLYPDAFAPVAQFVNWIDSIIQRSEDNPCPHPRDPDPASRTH
Description: The test compound (inhibitor) is dissolved in DMSO in a vial to produce an inhibitor stock solution which has a concentration in the range of 200-1000 μM. The inhibitor stock solution is diluted (1:4, 1:16 and 1:64) into assay vials (vials 1, 2 and 3 respectively) containing 2.4 mL of buffer solution (50 mM N-[2-hydroxyethyl] piperazine-N'-[2-ethanesulfonic acid]/NaOH, 500 mM NaCl, pH 7.8 at 25° C.) and DMSO is added so that the total volume in each vial is 3.2 mL. 70 μL, 50 μL, 35 μL and 25 μL of inhibitor from assay vial 1 is placed into the first four wells of a 96-well microtiter plate and each well is made up to 90 μL total volume with the addition of a 25% DMSO/buffer solution. The inhibitor from assay vials 2 and 3 is processed in a similar manner and placed in wells 5-12 respectively to afford a total of 12 different inhibitor concentrations. Four wells (wells 13-16) containing 90 μL of the 25% DMSO/buffer solution but no inhibitor are also run simultaneously with the inhibited wells as a control. 150 μL of substrate solution (prepared by the addition of 500 μL of the human leukocyte elastase (HLE) substrate MeOSuc-Ala-Ala-Pro-Val-pNA (18.7 mM in DMSO) to 19.5 mL of buffer solution) is then added simultaneously into each of the 16 wells and the solution in each well was thoroughly mixed.
The 96-well microtiter plate is placed into a Microplate Reader #89815A spectrophotometer and 110 μL of the enzyme solution (prepared as follows: a mixture of 20 mL of buffer solution and 20 mg of bovine serum albumen is gently vortexed in a scintillation vial and 5 μL HLE stock solution (1 mg/mL dissolved in deionized water) is added) is added simultaneously to each of the 16 wells. Each of the solutions in the wells is throughly mixed and then the time-dependent absorbance data is collected at an absorbance of 410 nm until the assay is complete. It should be noted that although this assay method can be done manually, it is preferred to perform the assay robotically using a Hewlett Packard MicroAssay System Robot. the absorbance versus time data thus obtained affords curves the final slope of which is equal to the final steady-statevelocities (VF). Using the program ENZFITTER (Elsevier software), the progress curves for the four control assays ([I]=0 are fit by linear regression to yield the enzyme reaction velocity values in the absences of inhibitor (Vo) which are averaged to produce a single fixed value. The inhibition constant Ki (nM) is then obtained from a plot of [formula] which affords a linear plot wherein: [formula] and [S] is the concentration of the substrate and Km is the Michaelis constant.
Table I summarizes the results obtained from the testing of compounds of the invention for human leukocyte elastase inhibitory activity.

| SMILES | Ki |
| --- | --- |
| CC(C)c1cc(OCCCCCC(=O)O)cc2c1C(=O)N(COc1cc(C(F)(F)F)nn1-c1ccccc1)S2(=O)=O [37 (f), 4-isopropyl-6-[5-(carboxy)-enthyloxy]-2-(1-phenyl-3-trifluoromethylpyrazol-5-yl-oxymethyl)-1,2-benzisothiazol-3(2H)-one 1,1-dioxide] | 0.081 nM |
| CC(C)c1cc(OCCC(C)(C)C(=O)O)cc2c1C(=O)N(COc1cc(C(F)(F)F)nn1-c1ccccc1)S2(=O)=O [38 (d)] | 0.18 nM |
| CC(C)c1cc(OCCCC(=O)O)cc2c1C(=O)N(COc1cc(C(F)(F)F)nn1-c1ccc(Cl)cc1)S2(=O)=O [39 (c), 4-isopropyl-6-[3-(carboxy)propoxy]-2-[1-(4-chlorophenyl)-3-trifluoromethylpyrazol-5-yl-oxymethyl]-1,2-benzisothiazol-3(2H)-one 1,1-dioxide] | 0.074 nM |
| COc1ccc(COC(=O)c2ccc(COc3cc(C(C)C)c4c(c3)S(=O)(=O)N(COc3cc(C(F)(F)F)nn3-c3ccccc3)C4=O)o2)cc1 [42 (b)] | 0.081 nM |
| COc1cc(C(C)C)c2c(c1)S(=O)(=O)N(COc1cc(C(F)(F)F)nn1-c1cccc(Cl)c1)C2=O [51 (b), 4-isopropyl-6-methoxy-2-[1-(3-chlorophenyl)-3-trifluoromethylpyrazol-5-yl-oxymethyl]-1,2-benzisothiazol-3(2H)-one 1,1-dioxide] | 0.13 nM |
| COc1cc(C(C)C)c2c(c1)S(=O)(=O)N(COc1cc(Br)nn1-c1ccccc1)C2=O [52 (b), 4-isopropyl-6-methoxy-2-[1-phenyl-3-bromopyrazol-5-yl-oxymethyl]-1,2-benzisothiazol-3(2H)-one 1,1-dioxide] | 0.066 nM |
| COc1cc(C(C)C)c2c(c1)S(=O)(=O)N(COc1cc(C)nn1C)C2=O [Example 1, 4-isopropyl-6-methoxy-2-(1,3-dimethylpyrazol-5-yl-oxymethyl)-1,2-benzisothiazol-3(2H)-one 1,1-dioxide] | 0.73 nM |
| CC(C)c1cc(O)cc2c1C(=O)N(COc1cc(C(F)(F)F)nn1-c1ccccc1)S2(=O)=O [Example 9, 4-iso-ropyl-6-hydroxy-2-(1-phenyl-3-trifluoromethylpyrazol-5-yl-oxymethyl)-1,2-benzisothiazol-3(2H)-one 1,1-dioxide] | 0.78 nM |
| CCOC(=O)c1cc(OCN2C(=O)c3c(C(C)C)cc(OC)cc3S2(=O)=O)n(-c2ccccc2)n1 [Example 12, 4-isopropyl-6-methoxy-2-(1-phenyl-3-ethoxycarbonylpyrazol-5-yl-oxymethyl)-1,2-benzisothiazol-3(2H)-one 1,1-dioxide] | 0.077 nM |
| CC(C)c1cc(OCc2ccc(CN(C)C)o2)cc2c1C(=O)N(COc1cc(C(F)(F)F)nn1-c1ccccc1)S2(=O)=O [Example 13] | 0.12 nM |
| COc1cc(C(C)C)c2c(c1)S(=O)(=O)N(COc1cc(C(=O)O)nn1-c1ccccc1)C2=O [Example 21, 4-isopropyl-6-methoxy-2-[1-phenyl-3-(carboxy)pyrazol-5-yl-oxymethyl]-1,2-benzisothiazol-3(2H)-one 1,1-dioxide] | 0.31 nM |
| COc1cc(C(C)C)c2c(c1)S(=O)(=O)N(COc1cc(C#N)nn1-c1ccccc1)C2=O [Example 35, 4-isopropyl-6-methoxy-2-(1-phenyl-3-cyanopyrazol-5-yl-oxymethyl)-1,2-benziso thiazol-3(2H)-one 1,1-dioxide] | 0.014 nM |
| COc1cc(C(C)C)c2c(c1)S(=O)(=O)N(COc1cc(C#N)nn1-c1ccc(Cl)cc1)C2=O [Example 46, 4-isopropyl-6-methoxy-2-[1-(4-chlorophenyl)-3-cyanopyrazol-5-yl-oxymethyl]-1,2-benzisothiazol-3(2H)-one 1,1-dioxide] | 0.19 nM |

Continued by falling Ki, values first:

| Ki | SMILES |
| --- | --- |
| 39 nM | COc1cc(C(C)C)c2c(c1)S(=O)(=O)N(COc1cc(C(F)(F)F)nn1Cc1ccccc1)C2=O [Example 48, 4-isopropyl-6-methoxy-2-[1-benzyl-3-trifluoromethylpyrazol-5-yl-oxymethyl]-1,2-benzisothiazol-3(2H)-one 1,1-dioxide] |
| 1.9 nM | CC(C)c1cc(O)cc2c1C(=O)N(COc1cc(C(F)(F)F)nn1-c1ccc(Cl)cc1)S2(=O)=O [39 (a), 4-isopropyl-6-hydroxy-2-[1-(4-chlorophenyl)-3-trifluoromethylpyrazol-5-yl-oxymethyl]-1,2-benzisothiazol-3(2H)-one 1,1-dioxide] |
| 0.5 nM | CCOc1cc(OCC)c2c(c1)S(=O)(=O)N(COc1cc(C(F)(F)F)nn1-c1ccccc1)C2=O [Example 47, 4,6-diethoxy-2-[1-phenyl-3-trifluoromethylpyrazol-5-yl-oxymethyl]-1,2-benzisothiazol-3(2H)-one 1,1-dioxide] |
| 0.1 nM | COc1cc(C(C)C)c2c(c1)S(=O)(=O)N(COc1cc(C(F)(F)F)nn1C)C2=O [Example 25, 4-isopropyl-6-methoxy-2-(1-methyl-3-trifluoromethylpyrazol-5-yl-oxymethyl)-1,2-benzisothiazol-3(2H)-one 1,1-dioxide] |
| 0.076 nM | COc1cc(C(C)C)c2c(c1)S(=O)(=O)N(COc1cc(C)nn1-c1ccc([N+](=O)[O-])cc1)C2=O [Example 7, 4-isopropyl-6-methoxy-2-[1-(p-nitrophenyl)-3-methylpyrazol-5-yl-oxymethyl]-1,2-benzisothiazol-3(2H)-one 1,1-dioxide] |
| 0.068 nM | COc1cc(C(C)C)c2c(c1)S(=O)(=O)N(COc1cc(C(F)(F)F)nn1-c1ccccc1)C2=O [Example 3, 4-isopropyl-6-methoxy-2-(1-phenyl-3-trifluoromethylpyrazol-5-yl-oxymethyl)-1,2-benzisothiazol-3(2H)-one 1,1-dioxide] |
| 0.061 nM | COc1cc(C(C)C)c2c(c1)S(=O)(=O)N(COc1cc(C(F)(F)F)nn1-c1ncccc1C)C2=O [45 (b), 4-isopropyl-6-methoxy-2-[1-(3-methyl-2-pyridyl)-3-trifluoromethylpyrazol-5-yl-oxymethyl]-1,2-benzisothiazol-3(2H)-one 1,1-dioxide] |
| 0.058 nM | COc1cc(C(C)C)c2c(c1)S(=O)(=O)N(COc1cc(C#N)nn1-c1ccc(Cl)cc1Cl)C2=O [50 (b), 4-isopropyl-6-methoxy-2-[1-(2,4-dichlorophenyl)-3-cyanopyrazol-5-yl-oxymethyl]-1,2-benzisothiazol-3(2H)-one 1,1-dioxide] |
